Experimental data from US8486924B2, “Taxane delivery system” (Celator Pharmaceuticals, Inc., priority 2007, dated 2013).
Where two headings read alike, the source gives them in different places.

Tests used:
[1] = test system: MCF-7 human tumor cell line; details: read-out: IC50 values MCF-7; prodrug/POPC/2kPS3k (1:1:2) formulations; 72 hours; MTT; ± SD
[2] = test system: HT29 human colon carcinoma cells; details: Q4Dx6, nanoparticle formulations; for therapeutic activity in HT29 model: 34 μmol/kg dose; for treatment induced delay in reaching a mean tumor size of 500 mm^3: HT29 model, 36 μmol/kg
Description: Female athymic nude mice (7-8 weeks old) were inoculated subcutaneously with 100 μl HT29 human colon carcinoma cells (2×10^6 cells) using a 26 gauge needle. Mice were randomly grouped (n=6/group) with a mean tumor size between 80 and 120 mg prior to first treatment. […] Subsequent injections were made according to the designated schedule. Tumor length and width measurements, body weight and in life observations were recorded 2-3 times per week. Tumor weight was calculated according to the formula (L×W^2)/2.
The relative efficacies of nanoparticle formulations of 1, 2, 4, 5, 6 and 7 were determined in the HT29 model using a 36 μmol/kg dose on a Q4Dx6 schedule (FIG. 3). Saline was used as a negative control.
The activity of 7 in POPC/2.5kPS3k nanoparticle formulations relative to paclitaxel was determined by comparing the efficacy of doses ranging from 0.25 to 3 mole equivalents of paclitaxel (FIG. 4) in the HT29 tumor model. Taxol® dosed at 23 μmol/kg on a Q2Dx5 schedule was used as a positive control.
The tumor growth data was analyzed by two methods to determine what dose of 7 would be equivalent to the Taxol® positive control.

[3] = test system: A2780 human tumor cell line; assay: MTT growth inhibition, A2780 cells, 72 hours; details: read-out: IC50 values A2780, prodrug/POPC/2kPS3k (1:1:2) formulations, ± SD
[4] = test system: MCF-7 breast carcinoma cell line; details: literature reference 7; cited from earlier work
[5] = volume weighted average
Description: The prodrug, co-lipid and stabilizer polymers (typically on a 1:1:2 w/w basis) were dissolved in ethanol/THF (4:1) at a concentration of 40 mg/ml. The solvent was rapidly diluted with water using a four port CVIJ mixer^13, 14 with flow rates set at […] (solvent/water/water/water). Flow rates were controlled using Harvard Apparatus PHD2000 syringe pumps. The resultant solution was then dialyzed against water to remove residual solvent. […] When higher concentrations were required the dialyzed solution was diluted with equi-volumes of 600 mM sucrose and then concentrated using a 100 kD, 0.5 mm lumen, 60 cm path length MidGee hoop cartridge (GE Healthcare Life Sciences, Piscataway, N.J.) with a peristaltic pump. Particle size was determined using a Malvern Zetasizer Nano-ZS particle sizer and reported as volume weighted data.
Formulations were composed of a prodrug, a co-lipid and an amphipathic stabilizer in a weight ratio of 1:1:2, respectively at a concentration of 40 mg per mL of solvent. […] Poly(ethylene glycol)-b-polystyrene (2kPS3k or 2.5kPS3k) was used as the amphipathic stabilizer. Other stabilizers may also be used.

[6] = vortexing 30 seconds
Description: The physical stability of formulations was investigated by examining changes in particle size after vortexing prodrug/co-lipid/2.5kPS3k (1:1:2) nanoparticles in water, 150 mM saline or 300 mM sucrose (Table 1). […] The increase in particle size was monitored by using dynamic light scattering to measure the Z average (the intensity weighted mean size of the particle distribution) value for samples before and after vigorous vortexing. The change in the Zave value was used as surrogate readout for the formation of aggregates or precipitates resulting from mechanical instability, where a higher value for ΔZave indicated a higher level of aggregation or precipitation (Table 1).

[7] = mouse, in vivo
Description: Athymic nude mice (n=3/timepoint) were injected iv with test samples (10 μl/g body weight, to a maximum of 250 μl). Blood was collected at the designated time point by cardiac puncture and placed into EDTA coated microtainer tubes (BD Biosciences). The tubes were centrifuged at 2800 rpm for 10 minutes. Plasma was recovered and 50 μl aliquots analyzed by HPLC for drug content. Samples containing ^3H—CHE (50 μl) were diluted with PicoFluor40™ scintillation fluid (Packard) and counted on a Beckman-Coulter LS 6500 Multipurpose scintillation counter. The total drug (counts) per mouse in the blood compartment was calculated assuming a plasma volume of 0.04125 mL per gram of body weight.
Elimination studies tracking both the prodrug and the particle were conducted to obtain a more accurate description of the partitioning behavior of the prodrugs in vivo (FIG. 1). Prodrug elimination was followed by HPLC, while particle elimination rates were determined by labeling nanoparticles with tritiated cholesterylhexadecyl ether (3H—CHE).
Formulations comprised of 1/VES/2kPS3k (1:1:2) and 2/VES/2kPS3k (1:1:2) were labeled with trace amounts of ^3H—CHE and plasma levels of both the label and prodrug were monitored in Foxn1^nu mice (FIG. 1, Panel A).
Effect of prodrug partitioning on plasma drug elimination was determined. The prodrug panel was screened using prodrug/POPC/2kPS3k (1:1:2) nanoparticles in Foxn1^nu mice to determine elimination rates for the different prodrug conjugates (FIG. 2). […] Conjugates were formulated at a concentration of 0.7 mg/mL.
In order to estimate the partitioning half-life for each prodrug, it was assumed that 1 tracked the particle elimination rate based on the results discussed above. The elimination of all other prodrugs were then fitted to four parameter double exponential decay curves and normalized against 1.

[8] = unbuffered processed plasma sample
Description: Methanol:acetonitrile 1:4 (v:v) was effective in near complete precipitation of plasma proteins and liberation of the prodrug from the nanoparticle.

[9] = prodrug/POPC/2.5kPS3k (1:1:2) nanoparticles in water
[10] = co-lipid POPC, prodrug/co-lipid/2.5kPS3k (1:1:2)

For “2′-O-(4″-O-tocopherylsuccinoyl)-paclitaxel [Prodrug 1]”, the IC50 [1] was 158 ± 72 nM, the “therapeutic activity in HT29 model” value [2] was “no evidence of any therapeutic activity” and the IC50 [3] was 192 nM.

In the case of `CCCCCCCCCCCCCCCC(=O)OC(C(=O)OC1CC2(O)C(OC(=O)c3ccccc3)C3C4(OC(C)=O)COC4CC(O)C3(C)C(=O)C(OC(C)=O)C(=C1C)C2(C)C)C(NC(=O)c1ccccc1)c1ccccc1` (stereo not shown) [2′-O-hexadecanoylpaclitaxel], the IC50 [4] is listed as 8600 nM.

In the case of `CCCCCCCC/C=C\CCCCCCCCOC(=O)COCC(=O)O[C@@H](C(=O)O[C@H]1C[C@@]2(O)[C@@H](OC(=O)c3ccccc3)[C@@H]3[C@]4(OC(C)=O)CO[C@@H]4C[C@H](O)[C@@]3(C)C(=O)[C@H](OC(C)=O)C(=C1C)C2(C)C)[C@@H](NC(=O)c1ccccc1)c1ccccc1` [Prodrug 4, 2′-O-(5″-O-oleyldiglycoloyl)-paclitaxel], the IC50 [1] is reported as 15.9 ± 0.7 nM, the Diameter [5, 9] is reported as 22 nm and the “treatment induced delay in reaching a mean tumor size of 500 mm^3” value (“treatment induced delay” for short) [2] is reported as 3 days. For the same compound, the “ΔZave 150 mM saline” value [6, 10] was 25 nm, the “ΔZave 300 mM sucrose” value [6, 10] was 5 nm and the ΔZave water [6, 10] was 15 nm. For the same compound, the IC50 [3] was 28.4 nM.

`CCCCCCCCCCCCCC(=O)OC[C@H](COC(=O)COCC(=O)O[C@@H](C(=O)O[C@H]1C[C@@]2(O)[C@@H](OC(=O)c3ccccc3)[C@@H]3[C@]4(OC(C)=O)CO[C@@H]4C[C@H](O)[C@@]3(C)C(=O)[C@H](OC(C)=O)C(=C1C)C2(C)C)[C@@H](NC(=O)c1ccccc1)c1ccccc1)OC(=O)CCCCCCCCCCCCC` [Prodrug 9, 2′-O-(5″-O-(1′″,2′″-dimyristoyl-sn-glycero)diglycoloyl)-paclitaxel] showed an IC50 [1] of 32.2 ± 1.3 nM, a partitioning half life [7] of 8.5 h and a Diameter [5, 9] of 23 nm. For the same compound, the “ΔZave 150 mM saline” value [6, 10] was 171 nm, the “ΔZave 300 mM sucrose” value [6, 10] was 0 nm and the ΔZave water [6, 10] was 167 nm. It also gave an IC50 [3] of 34.7 ± 1.3 nM.

In the case of `CC(=O)OC1C(=O)C2(C)C(O)CC3OCC3(OC(C)=O)C2C(OC(=O)c2ccccc2)C2(O)CC(OC(=O)C(OC(=O)COCC(=O)Oc3c(C)c(C)c4c(c3C)CCC(C)(CCCC(C)CCCC(C)CCCC(C)C)O4)C(NC(=O)c3ccccc3)c3ccccc3)C(C)=C1C2(C)C` (stereo not shown) [Prodrug 3, 2′-O-(5″-O-tocopheryldiglycoloyl)-paclitaxel], the IC50 [1] is reported as 13.4 ± 2.4 nM, the partitioning half life [7] is reported as “approximately 13 h” and the Diameter [5, 9] is reported as 24 nm. For the same compound, the “ΔZave 150 mM saline” value [6, 10] was 55 nm, the ΔZave water [6, 10] was 125 nm and the IC50 [3] was 25.3 nM.

With `CCCCCCCC/C=C\CCCCCCCCOC(=O)CCC(=O)O[C@@H](C(=O)O[C@H]1C[C@@]2(O)[C@@H](OC(=O)c3ccccc3)[C@@H]3[C@]4(OC(C)=O)CO[C@@H]4C[C@H](O)[C@@]3(C)C(=O)[C@H](OC(C)=O)C(=C1C)C2(C)C)[C@@H](NC(=O)c1ccccc1)c1ccccc1` [Prodrug 2, 2′-O-(4″-O-oleylsuccinoyl)-paclitaxel] the IC50 [1] was 67 ± 5.9 nM, the “prodrug remaining after processing plasma samples” value ([8]; after 68 hours) was “approximately 25%” and the “prodrug plasma clearance compared with 3H-CHE label” value ([7]; iv) was “cleared significantly faster”. For the same compound, the Diameter [5, 9] was 26 nm, the “therapeutic activity in HT29 model” value [2] was “no evidence of any therapeutic activity” and the “ΔZave 150 mM saline” value [6, 10] was 43 nm. The “ΔZave 300 mM sucrose” value [6, 10] was 10 nm, the ΔZave water [6, 10] was 20 nm and the IC50 [3] was 75.1 nM.

For `CCCCCCCCCCCCCCC(Br)C(=O)O[C@@H](C(=O)O[C@H]1C[C@@]2(O)[C@@H](OC(=O)c3ccccc3)[C@@H]3[C@]4(OC(C)=O)CO[C@@H]4C[C@H](O)[C@@]3(C)C(=O)[C@H](OC(C)=O)C(=C1C)C2(C)C)[C@@H](NC(=O)c1ccccc1)c1ccccc1` (stereo partly shown) [2′-(2″-bromohexadecanoyl)paclitaxel], the IC50 [4] is listed as 70 nM.

In the case of `CC(=O)O[C@H]1C(=O)[C@@]2(C)[C@H]([C@H](OC(=O)c3ccccc3)[C@]3(O)C[C@H](OC(=O)[C@H](O)[C@@H](NC(=O)c4ccccc4)c4ccccc4)C(C)=C1C3(C)C)[C@]1(OC(C)=O)CO[C@@H]1C[C@@H]2O` [Paclitaxel], the IC50 [4] is given as < 1 nM.

Work on `CCCCCCCCCCCCCCCCCCOC(=O)COCC(=O)O[C@@H](C(=O)O[C@H]1C[C@@]2(O)[C@@H](OC(=O)c3ccccc3)[C@@H]3[C@]4(OC(C)=O)CO[C@@H]4C[C@H](O)[C@@]3(C)C(=O)[C@H](OC(C)=O)C(=C1C)C2(C)C)[C@@H](NC(=O)c1ccccc1)c1ccccc1` [Prodrug 5, 2′-O-(5″-O-octadecyldiglycoloyl)-paclitaxel] yielded an IC50 [1] of 1.1 ± 1.5 nM, a partitioning half life [7] of 1.7 h and a Diameter ([5]; no co-lipid, prodrug/2.5kPS3k nanoparticles in water) of 28 nm. For the same compound, the Diameter [5, 9] was 21 nm, the Diameter ([5]; prodrug/VES/2.5kPS3k (1:1:2) nanoparticles in water) was 7 nm and the “treatment induced delay” value [2] was 4 days. For the same compound, the “ΔZave 150 mM saline” value [6, 10] was 24 nm, the “ΔZave 300 mM sucrose” value [6, 10] was 7 nm and the ΔZave water [6, 10] was 20 nm. The “ΔZave 150 mM saline” value ([6]; co-lipid VES, 2.5kPS3k) was 372 nm, the “ΔZave 300 mM sucrose” value ([6]; co-lipid VES, 2.5kPS3k) was 10 nm and the ΔZave water ([6]; co-lipid VES, 2.5kPS3k) was 3 nm. For the same compound, the “ΔZave 150 mM saline” value ([6]; no co-lipid, 2.5kPS3k) was 774 nm, the “ΔZave 300 mM sucrose” value ([6]; no co-lipid, 2.5kPS3k) was 71 nm and the ΔZave water ([6]; no co-lipid, 2.5kPS3k) was 109 nm. It also gave an IC50 [3] of 20.9 ± 10.9 nM.

For `CCCCCCCCCCCCCCCCCCCCOC(=O)COCC(=O)O[C@@H](C(=O)O[C@H]1C[C@@]2(O)[C@@H](OC(=O)c3ccccc3)[C@@H]3[C@]4(OC(C)=O)CO[C@@H]4C[C@H](O)[C@@]3(C)C(=O)[C@H](OC(C)=O)C(=C1C)C2(C)C)[C@@H](NC(=O)c1ccccc1)c1ccccc1` [Prodrug 6, 2′-O-(5″-O-cosanyldiglycoloyl)-paclitaxel], the IC50 [1] was 16.6 ± 4.5 nM, the “hydrolysis of prodrug after processing plasma samples” value ([8]; after 9 hours) was “completely hydrolyzed” and the partitioning half life [7] was ~6.5 h. The Diameter [5, 9] was 23 nm, the “treatment induced delay” value [2] was 15 days and the “ΔZave 150 mM saline” value [6, 10] was 26 nm. For the same compound, the “ΔZave 300 mM sucrose” value [6, 10] was 36 nm, the ΔZave water [6, 10] was 21 nm and the IC50 [3] was 29 ± 1.3 nM.

In the case of `CC(=O)O[C@H]1C(=O)[C@@]2(C)[C@H]([C@H](OC(=O)c3ccccc3)[C@]3(O)C[C@H](OC(=O)[C@H](OC(=O)COCC(=O)O[C@H]4CC[C@@]5(C)C(=CC[C@H]6[C@@H]7CC[C@H]([C@H](C)CCCC(C)C)[C@@]7(C)CC[C@@H]65)C4)[C@@H](NC(=O)c4ccccc4)c4ccccc4)C(C)=C1C3(C)C)[C@]1(OC(C)=O)CO[C@@H]1C[C@@H]2O` [Prodrug 8, 2′-O-(5″-O-cholesteryldiglycoloyl)-paclitaxel], the IC50 [1] is reported as 24.1 ± 0.6 nM, the partitioning half life [7] is reported as “approximately 21 h” and the Diameter [5, 9] is reported as 23 nm. For the same compound, the “ΔZave 150 mM saline” value [6, 10] was 42 nm, the “ΔZave 300 mM sucrose” value [6, 10] was 41 nm and the ΔZave water [6, 10] was 47 nm. For the same compound, the IC50 [3] was 27 ± 1.1 nM.
